# Source: patent publication US6716809B1, “Mage-A3 peptides presented by HLA class molecules” (priority 1997, dated 2004)
# B1: MAGE-A3: MAGE-A3 protein; recombinant His-MAGE-A3 produced in E. coli, or expressed from MFG MAGE-A3 retrovirus in Example 6 (protein, listed as Homo sapiens)
# chain: MPLEQRSQHCKPEEGLEARGEALGLVGAQAPATEEQEAASSSSTLVEVTLGEVPAAESPDPPQSPQGASSLPTTMNYPLWSQSYEDSSNQEEEGPSTFPDLESEFQAALSRKVAELVHFLLLKYRAREPVTKAEMLGSVVGNWQYFFPVIFSKASSSLQLVFGIELMEVDPIGHLYIFATCLGLSYDGLLGDNQIMPKAGLLIIVLAIIAREGDCAPEEKIWEELSVLEVFEGREDSILGDPKKLLTQHFVQENYLEYRQVPGSDPACYEFLWGPRALVETSYVKVLHHMVKISGGPHISYPPLHEWVLREGEE
# modifications: His tag
# What was measured:
# Type in all cases: cell-based, human
# 7002 CD4+ clone 2 = assay: IFN-γ production by CD4+ clone 2 stimulated with peptide- or protein-pulsed EBV-B cells; conditions: for IFN-γ production after stimulation with peptide of clone 2: 1 μg/ml peptide
# Protocol: (§1) In order to confirm the efficacy of this protocol, dendritic cells were fed with the MAGE-3 protein, using conditions described above, to stimulate autologous CD4^+ T lymphocytes from hemochromatosis patient LB1158 or from melanoma patient 7002. After four restimulations, the specific production of IFN-γ by an aliquot of each of the microcultures stimulated with the autologous EBV-B cells loaded with MAGE-A3 were tested on day 35 for patient LB1158 and day 37 for patient 7002. For each individual, one positive microculture was cloned using autologous EBV-B cells as stimulating cells, either retrotransduced with MFG Ii MAGE-A3 for LB1158, or fed with protein MAGE-A3 for patient 7002. […] Specifically, autologous EBV-B cells were incubated for 20 h in the presence of 20 μg/ml of recombinant His-MAGE-A3 protein. Clone 22 (2500 cells) was incubated overnight with 5000 MAGE-A3 loaded EBV-B cells in round botton microwells in the presence or absence of monoclonal antibodies which recognize HLA-A,B,C (W6/32) or HLA-DR (2B6). IFN-γ secretion was measured after 20 h by ELISA (FIG. 15A).
# (§2) Peptides corresponding to parts of MAGE-A3 (e.g., MAGE107-122, MAGE111-126, MAGE115-130, MAGE119-134) were tested for recognition by clone 2 and 22. HLA-DR13 EBV-B cells were pulsed for 2 h with different concentrations of these peptides. Clones 2 and 37 (2500 cells) were incubated with 5000 peptide pulsed cells in round-bottomed microwells for 20 h and assayed for IFN-γ production.
# (§3) Autologous or allogeneic EBV-B cells were pulsed for 2 h with 1 μg/ml MAGE-A3119-134 peptide, and then washed. Clones 2 or 22 were incubated with 5000 peptide-pulsed EBV-B cells in round-bottomed microwells for 20 h and the clones' reactivity to the EBV-B cells was measured by ELISA as IFN-γ secretion. Experiments were performed in triplicate.
# (§4) Unlike HLA-class I-restricted peptides, class II-restricted peptides usually vary in length and tolerate extensions at both the amino and carboxy termini, because they are not fixed by their ends in the groove. It is therefore difficult to define precisely the length of the antigenic peptide. Therefore a large number of MAGE-A3 peptides were tested at different concentrations (Tables IV and V). […] 2500 cells of clone 37 were then cocultured for 20 h in round-bottomed microwells with 5000 peptide-pulsed cells. IFN-γ released in the supernatant of the cocultures was measured in an ELISA assay. The experiments were performed in triplicate. […] Clones 2 and 22 (2500 cells) were then cocultured for 20 h in round-bottomed microwells with 5000 peptide-pulsed cells. IFN-γ released in the supernatant of the cocultures was measured in an ELISA assay. The experiments was performed twice in duplicates.
# [1] = tested on: CD4+ clone 436/B6.34 (B6/34); assay: TNF/IFN-γ production by CD4+ clone B6/34 stimulated with peptide-pulsed EBV-B cells
# Protocol: In order to identify the MAGE-A3 peptides recognized by these CD4^+ clones, 16 amino acid peptides, corresponding to parts of the MAGE-A3 protein sequence were synthesized, loaded on the autologous EBV-B cells and tested for recognition (FIGS. 4 and 5). Peptides were synthesized using F-moc for transient NH2-terminal protection and were characterized using mass spectrometry. All peptides were >80% pure as indicated by analytical HPLC. Lyophilized synthetic peptides were dissolved in DMSO (Merck) and used at a final concentration of 500 μM, 50 μM or 5 μg/ml. EBV-B cells (5,000 per round-bottomed microwell) were incubated 2 hours at 37° C., 8% CO2 in the presence of the different peptides, the indicated concentrations representing the peptide concentration during the incubation step. CD4^+ clones were then added at 2,500 cells per well. Assay medium was Iscove's medium supplemented with L-glutamine, L-arginine, L-asparagine, 10% human serum and IL-2 (25 U/ml). After 18-20 hours, supernatants were harvested and assessed for TNF-α and/or IFN-γ secretion. IFN-γ production was measured using an ELISA test (20-4000 pg/ml) developed in the laboratory with reagents from Medgenix Diagnostics-Biosource (Fleurus, Belgium).
# LB1158 CD4+ clone 22 = assay: IFN-γ production by CD4+ clone 22 stimulated with peptide- or protein-pulsed EBV-B cells; conditions: for IFN-γ production after stimulation with peptide of clone 22: 1 μg/ml peptide
# Protocol: as §1, §2, §3, §4
# [2] = EBV-B cell line 7002, DR13 positive
# [3] = EBV-B cell line BM16, DR13 negative
# [4] = EBV-B cell line BOB, DR13 negative
# [5] = EBV-B cell line BOLETH, DR13 negative
# [6] = EBV-B cell line LB1118, DR13 positive
# [7] = EBV-B cell line LB1158, DR13 positive
# [8] = EBV-B cell line LB1622, DR13 positive
# [9] = EBV-B cell line LB1859, DR13 positive
# [10] = EBV-B cell line LB1861, DR13 positive
# [11] = EBV-B cell line LB1869, DR13 positive
# [12] = EBV-B cell line LKT3, DR13 negative
# [13] = EBV-B cell line MZ2, DR13 positive
# [14] = EBV-B cell line OLGA, DR13 negative
# [15] = EBV-B cell line OMW, DR13 positive
# [16] = EBV-B cell line RML, DR13 negative
# [17] = EBV-B cell line RSH, DR13 negative
# [18] = EBV-B cell line TAB089, DR13 negative
# [19] = EBV-B cell line TISI, DR13 negative
# [20] = EBV-B cell line VAF, DR13 negative
# [21] = EBV-B cell line VET, DR13 negative
molecule,measurement,setting,value
FLLLKYRAREPVTKAE (listed as Homo sapiens) [MAGE-A3119-134],IFN-γ production after stimulation with peptide of clone 2,7002 CD4+ clone 2; [2],>4000 pg/mL
same,IFN-γ production after stimulation with peptide of clone 2,7002 CD4+ clone 2; [3],12 pg/mL
same,IFN-γ production after stimulation with peptide of clone 2,7002 CD4+ clone 2; [4],59 pg/mL
same,IFN-γ production after stimulation with peptide of clone 2,7002 CD4+ clone 2; [5],0 pg/mL
same,IFN-γ production after stimulation with peptide of clone 2,7002 CD4+ clone 2; [6],>4000 pg/mL
same,IFN-γ production after stimulation with peptide of clone 2,7002 CD4+ clone 2; [7],>4000 pg/mL
same,IFN-γ production after stimulation with peptide of clone 2,7002 CD4+ clone 2; [8],3993 pg/mL
same,IFN-γ production after stimulation with peptide of clone 2,7002 CD4+ clone 2; [9],>4000 pg/mL
same,IFN-γ production after stimulation with peptide of clone 2,7002 CD4+ clone 2; [10],>4000 pg/mL
same,IFN-γ production after stimulation with peptide of clone 2,7002 CD4+ clone 2; [11],>4000 pg/mL
same,IFN-γ production after stimulation with peptide of clone 2,7002 CD4+ clone 2; [12],0 pg/mL
same,IFN-γ production after stimulation with peptide of clone 2,7002 CD4+ clone 2; [13],>4000 pg/mL
same,IFN-γ production after stimulation with peptide of clone 2,7002 CD4+ clone 2; [14],0 pg/mL
same,IFN-γ production after stimulation with peptide of clone 2,7002 CD4+ clone 2; [15],3153 pg/mL
same,IFN-γ production after stimulation with peptide of clone 2,7002 CD4+ clone 2; [16],0 pg/mL
same,IFN-γ production after stimulation with peptide of clone 2,7002 CD4+ clone 2; [17],0 pg/mL
same,IFN-γ production after stimulation with peptide of clone 2,7002 CD4+ clone 2; [18],0 pg/mL
same,IFN-γ production after stimulation with peptide of clone 2,7002 CD4+ clone 2; [19],4 pg/mL
same,IFN-γ production after stimulation with peptide of clone 2,7002 CD4+ clone 2; [20],0 pg/mL
same,IFN-γ production after stimulation with peptide of clone 2,7002 CD4+ clone 2; [21],0 pg/mL
same,secretion of IFN-γ by clone 2,"7002 CD4+ clone 2; peptide at 10 ng/ml, HLA-DR13 EBV-B cells",stimulated secretion of IFN-γ
same,activation of clone B6/34 by 16 amino acid peptides,[1],unable to activate
same,IFN-γ production after stimulation with peptide of clone 22,LB1158 CD4+ clone 22; [2],>4000 pg/mL
same,IFN-γ production after stimulation with peptide of clone 22,LB1158 CD4+ clone 22; [3],7 pg/mL
same,IFN-γ production after stimulation with peptide of clone 22,LB1158 CD4+ clone 22; [4],46 pg/mL
same,IFN-γ production after stimulation with peptide of clone 22,LB1158 CD4+ clone 22; [5],6 pg/mL
same,IFN-γ production after stimulation with peptide of clone 22,LB1158 CD4+ clone 22; [6],1345 pg/mL
same,IFN-γ production after stimulation with peptide of clone 22,LB1158 CD4+ clone 22; [7],3967 pg/mL
same,IFN-γ production after stimulation with peptide of clone 22,LB1158 CD4+ clone 22; [8],1250 pg/mL
same,IFN-γ production after stimulation with peptide of clone 22,LB1158 CD4+ clone 22; [9],>4000 pg/mL
same,IFN-γ production after stimulation with peptide of clone 22,LB1158 CD4+ clone 22; [10],3865 pg/mL
same,IFN-γ production after stimulation with peptide of clone 22,LB1158 CD4+ clone 22; [11],>4000 pg/mL
same,IFN-γ production after stimulation with peptide of clone 22,LB1158 CD4+ clone 22; [12],0 pg/mL
same,IFN-γ production after stimulation with peptide of clone 22,LB1158 CD4+ clone 22; [13],2030 pg/mL
same,IFN-γ production after stimulation with peptide of clone 22,LB1158 CD4+ clone 22; [14],0 pg/mL
same,IFN-γ production after stimulation with peptide of clone 22,LB1158 CD4+ clone 22; [15],3651 pg/mL
same,IFN-γ production after stimulation with peptide of clone 22,LB1158 CD4+ clone 22; [16],6 pg/mL
same,IFN-γ production after stimulation with peptide of clone 22,LB1158 CD4+ clone 22; [17],0 pg/mL
same,IFN-γ production after stimulation with peptide of clone 22,LB1158 CD4+ clone 22; [18],0 pg/mL
same,IFN-γ production after stimulation with peptide of clone 22,LB1158 CD4+ clone 22; [19],4 pg/mL
same,IFN-γ production after stimulation with peptide of clone 22,LB1158 CD4+ clone 22; [20],49 pg/mL
same,IFN-γ production after stimulation with peptide of clone 22,LB1158 CD4+ clone 22; [21],56 pg/mL
same,stimulation of clone 22,LB1158 CD4+ clone 22; similar experiments,also stimulated
B1,IFN-γ secretion by clone 2 upon stimulation with protein-loaded autologous EBV-B cells,7002 CD4+ clone 2,secreted IFN-γ
same,IFN-γ secretion by clone 22 upon stimulation with protein-loaded autologous EBV-B cells,LB1158 CD4+ clone 22,secreted IFN-γ
